Data taken from US5336496A, “Inhibitor for delta 5-desaturase” (Suntory Limited, priority 1989, dated 1994).
Where two headings read alike, the source gives them in different places.

Key:
[1] = molecular target: T1, Δ^5 -desaturase (Rattus norvegicus, UniProt Q920R3); assay: Inhibition of Δ5-desaturase in rat liver microsome (conversion of [2-14C]-dihomo-γ-linolenic acid to arachidonic acid); assay type: biochemical, rat (Wister male); conditions: for specific inhibition of Δ^5 -desaturase / inhibition of Δ^5 -desaturation reaction from dihomo-γ-linolenic acid to arachidonic acid: in words; for specific inhibition of Δ^5 -desaturase: figure legends, compared with Δ^6 -desaturase (and Δ^9 -desaturase for sesamin); for inhibition of Δ^5 -desaturation reaction from dihomo-γ-linolenic acid to arachidonic acid: 0.001 to 0.5 mg/ml, FIGS. 1, 2 and 3, rat liver microsome; for inhibition at 30 µg/mL: read-out: Inhibition on Δ^5 -desaturase (%)
T1 construct: from tissue; host or cells: liver microsomes of a male Wistar rat
T1 sequence (Q920R3 whole entry, stated change not applied): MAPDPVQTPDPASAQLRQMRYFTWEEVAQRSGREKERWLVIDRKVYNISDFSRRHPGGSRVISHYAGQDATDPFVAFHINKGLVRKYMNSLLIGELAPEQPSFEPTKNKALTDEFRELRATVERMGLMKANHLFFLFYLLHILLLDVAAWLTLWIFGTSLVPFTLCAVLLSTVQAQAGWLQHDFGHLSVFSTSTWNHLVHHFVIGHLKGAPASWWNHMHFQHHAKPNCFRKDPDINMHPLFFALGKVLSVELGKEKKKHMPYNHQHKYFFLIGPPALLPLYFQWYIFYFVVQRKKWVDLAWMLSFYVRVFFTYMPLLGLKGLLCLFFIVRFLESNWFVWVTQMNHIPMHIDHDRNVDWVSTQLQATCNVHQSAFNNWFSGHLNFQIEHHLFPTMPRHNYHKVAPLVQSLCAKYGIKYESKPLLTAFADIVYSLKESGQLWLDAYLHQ
Experimental: As a homogenization solution, a 50 mM phosphate buffer (pH 7.4) containing 0.15M KCl, 5 mM MgCl2.6H2 O, 1 mM EDTA, 0.25M saccharose and 1.5 mM glutathione was used. The liver of a Wister male rat was perfused with physiological saline and removed, and to the removed liver was added 4-fold by weight of the homogenization solution, and the whole was homogenized. The homogenate was centrifuged at 10,000×g for 20 minutes to obtain a supernatant, which was centrifuged at 100,000×g for one hour to obtain a pellet. The pellet was suspended in the homogenization solution to obtain a microsome solution containing 12.24 mg/ml protein. The above-mentioned procedures were carried out at 4° C.
To assay the Δ^5 -desaturase activity 100 μl of the rat liver microsome solution was added to 1 ml of 0.1M phosphate buffer (PH7.4) containing 0.25M saccharose, 0.15M KCl, 1.5 mM glutathione, 45 mM NaF, 0.5 mM nicotinamide, 5 mM MgCl2.6H20 O, 7.5 mM ATP, 0.4 mM CoA.Na2, 1.5 mM NADH, and 100 μM dihomo-γ-linolenic acid containing 0.1 μCi (1.7 nmoles) [2-^14 C]-dihomo-γ-linolenic acid per 1 ml, the mixture was incubated at 37° C for one hour, followed by an addition of 5 ml of ethanol to terminate the reaction. To the reaction mixture was added 1 ml of 4N KOH, and mixture was incubated at 60° C for 30 minutes for saponification. After the reaction, 3 ml of water, 100 μg of dihomo-γ-linolenic acid and 1 ml of 6N HCl were added thereon, and fatty acids in the reaction mixture were extracted twice with 5 ml of hexane. The extract was evaporated in a centrifuge evaporator and 1 ml of ethyl ether/methanol (9:1) was added to the residue, and the fatty acids were methylated with diazomethane. After allowing to stand at a room temperature for 30 minutes, the reaction mixture was evaporated in a centrifuge evaporator to remove the solvent, whereby methyl esters of the resulting fatty acids were obtained. The esters were separated on a 10% AgNO3 silica gel plate using petroleum ether/ethyl ether (1:1) as a developing solvent. Silica gel portions corresponding to the substrate dihomo-γ-linolenic acid and the product arachidonic acid respectively were peeled off, and to 5 ml of toluene-based scintillation fluid solution was added to the silica gel to measure the radioactivity by a scintillation counter. The radioactivity of the generated arachidonic acid was determined by subtracting a radioactivity at the onset of the reaction from a radioactivity after the reaction.
The enzyme inhibitory activities of sesamin, episesamin and sesamomolin were measured according to the above-mentioned procedure, except that the reaction mixture contained 0.001 to 0.5 mg/ml sesamin, episesamin or sesamolin. The radioactivity was measured as described above, and the percent inhibition was calculated.

[2] = molecular target: T2, Δ^6 -desaturase (Rattus norvegicus, UniProt Q9Z122); assay: Inhibition of Δ6-desaturase in rat liver microsome ([1-14C]-linoleic acid substrate); assay type: biochemical, rat (Wister male); conditions: read-out: Inhibition on Δ^6 - (%)
T2 construct: The pellet was suspended in the homogenization solution to obtain a microsome solution; from tissue; host or cells: liver microsomes of a male Wistar rat
T2 sequence (Q9Z122 whole entry, stated change not applied): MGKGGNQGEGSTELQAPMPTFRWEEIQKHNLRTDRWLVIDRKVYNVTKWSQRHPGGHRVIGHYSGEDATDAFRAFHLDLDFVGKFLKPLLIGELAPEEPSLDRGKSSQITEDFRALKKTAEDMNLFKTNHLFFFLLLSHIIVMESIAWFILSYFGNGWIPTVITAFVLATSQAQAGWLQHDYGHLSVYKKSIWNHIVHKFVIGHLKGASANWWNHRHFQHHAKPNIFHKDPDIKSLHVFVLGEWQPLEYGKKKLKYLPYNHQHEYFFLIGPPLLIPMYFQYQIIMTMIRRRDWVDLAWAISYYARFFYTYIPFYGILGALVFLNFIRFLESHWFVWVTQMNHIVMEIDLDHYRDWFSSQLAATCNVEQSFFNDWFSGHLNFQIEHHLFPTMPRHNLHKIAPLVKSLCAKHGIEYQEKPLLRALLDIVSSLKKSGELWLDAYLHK

inhibition at 30 µg/mL ([2]; 0.03 mg/ml, rat liver microsome) [%] | Compound | specific inhibition of Δ^5 -desaturase [1] | inhibition of Δ^5 -desaturation reaction from dihomo-γ-linolenic acid to arachidonic acid [1] | inhibition at 30 µg/mL [1] [%] | inhibition at 30 µg/mL [2] [%]
 | c1cc2c(cc1O[C@H]1OC[C@H]3[C@@H]1CO[C@@H]3c1ccc3c(c1)OCO3)OCO2 [Sesamolin] | specifically inhibits | inhibited |  | 
 | CCCCOCCOCCOCc1cc2c(cc1CCC)OCO2 [Piperonyl butoxide] |  |  | 32.5 | 0
 | c1cc2c(cc1[C@H]1OC[C@H]3[C@@H]1CO[C@@H]3c1ccc3c(c1)OCO3)OCO2 [Sesamin] | specifically inhibits | inhibited | 39.2 | 0
36.1 | COc1cc(/C=C/C(=O)CC(=O)/C=C/c2ccc(O)c(OC)c2)ccc1O [Curcumin] |  |  |  | 
